One experiment concerns S. aureus (ATCC 29213). As to the kind of experiment: Bacterial assay: MIC against S. aureus. The class given is cell-based, Staphylococcus aureus. Particulars: Staphylococcus aureus, ATCC29213, read-out: minimal inhibitory concentration (MIC).
The test system of another experiment is S. pyogenes (ATCC 51339). Put plainly: Bacterial assay: MIC against S. pyogenes. In kind it is cell-based, Streptococcus pyogenes. The conditions noted are these: Streptococcus pyogenes, ATCC51339, read-out: minimal inhibitory concentration (MIC).

In brackets after ≈: the same amount, converted by molar mass.

As for `CCNC(=O)Nc1nc2cc(-c3cnc(C(O)(CC)CC)nc3)cc(-c3ccccn3)c2s1` [Compound 98, 1-ethyl-3-[5-[2-(1-ethyl-1-hydroxy-propyl)pyrimidin-5-yl]-7-(2-pyridyl)-1,3-benzothiazol-2-yl]urea], the MIC with S. aureus (ATCC 29213) and with S. pyogenes (ATCC 51339) was at most 1 µg/mL in each case.

In the case of `CCNC(=O)Nc1nc2cc(-c3cnc(C(C)(C)O)nc3)cc(-c3nccc(CN4CCOCC4)n3)c2s1` [Compound 101, 1-ethyl-3-[5-[2-(1-hydroxy-1-methyl-ethyl)pyrimidin-5-yl]-7-[4-(morpholinomethyl)pyrimidin-2-yl]-1,3-benzothiazol-2-yl]urea], the MIC with S. aureus (ATCC 29213) and in the experiment on S. pyogenes (ATCC 51339) was at most 1 µg/mL each time.

Regarding `CCNC(=O)Nc1nc2cc(-c3cnc(C(C)(C)O)nc3)cc(-c3cncc(CN4CCOCC4)n3)c2s1` [Compound 102, 1-ethyl-3-[5-[2-(1-hydroxy-1-methyl-ethyl)pyrimidin-5-yl]-7-[6-(morpholinomethyl)pyrazin-2-yl]-1,3-benzothiazol-2-yl]urea], the MIC in the experiment on S. aureus (ATCC 29213) and in the experiment with S. pyogenes (ATCC 51339) was 16 µg/mL (≈ 29.9 µM) in each case.

As to `CCNC(=O)Nc1nc2cc(-c3cnc(C(C)(C)O)nc3)cc(-c3nccc(NCC(C)(C)O)n3)c2s1` [Compound 103, 1-ethyl-3-[5-[2-(1-hydroxy-1-methyl-ethyl)pyrimidin-5-yl]-7-[4-[(2-hydroxy-2-methyl-propyl)amino]pyrimidin-2-yl]-1,3-benzothiazol-2-yl]urea], the MIC with S. aureus (ATCC 29213) is 2 µg/mL (≈ 3.83 µM); with S. pyogenes (ATCC 51339), at most 1 µg/mL.

Turning to `CCNC(=O)Nc1nc2cc(-c3cnc(C(C)O)nc3)cc(-c3nccc(N4CC(O)C4)n3)c2s1` (stereo not shown) [Compound 105, 1-ethyl-3-[7-[4-(3-hydroxyazetidin-1-yl)pyrimidin-2-yl]-5-[2-(1-hydroxyethyl)pyrimidin-5-yl]-1,3-benzothiazol-2-yl]urea], the values for the MIC with S. aureus (ATCC 29213) and in the experiment on S. pyogenes (ATCC 51339) were 16 µg/mL (≈ 32.5 µM) and at most 1 µg/mL, respectively.

`CCNC(=O)Nc1nc2cc(-c3cnc(C(C)O)nc3)cc(-c3ncc(F)c(N4CCOCC4)n3)c2s1` (stereo not shown) [Compound 106, 1-ethyl-3-[7-(5-fluoro-4-morpholino-pyrimidin-2-yl)-5-[2-(1-hydroxyethyl)pyrimidin-5-yl]-1,3-benzothiazol-2-yl]urea]: the MIC in the experiment with S. aureus (ATCC 29213) and with S. pyogenes (ATCC 51339) was at most 1 µg/mL in each case.

Consider `CCNC(=O)Nc1nc2cc(-c3cnc(C(C)(C)O)nc3)cc(-c3nccc(N4CCN(CCOC)CC4)n3)c2s1` [Compound 107, 1-ethyl-3-[5-[2-(1-hydroxy-1-methyl-ethyl)pyrimidin-5-yl]-7-[4-[4-(2-methoxyethyl)piperazin-1-yl]pyrimidin-2-yl]-1,3-benzothiazol-2-yl]urea], for which the MIC in the experiment on S. aureus (ATCC 29213) and in the experiment on S. pyogenes (ATCC 51339) was at most 1 µg/mL each time.

With `CCNC(=O)Nc1nc2cc(-c3ccc(C(O)C(F)(F)F)nc3)cc(-c3cc(CN4CCOCC4)ccn3)c2s1` (stereo not shown) [Compound 108, 1-ethyl-3-[7-[4-(morpholinomethyl)-2-pyridyl]-5-[6-(2,2,2-trifluoro-1-hydroxy-ethyl)-3-pyridyl]-1,3-benzothiazol-2-yl]urea], the MIC in the experiment on S. aureus (ATCC 29213) and with S. pyogenes (ATCC 51339) was at most 1 µg/mL each time.

As for `CCNC(=O)Nc1nc2cc(-c3cnc(C(C)O)nc3)cc(-c3cc(N4CCC(C)(C(=O)O)CC4)ncn3)c2s1` (stereo not shown) [Compound 109, 1-[6-[2-(ethylcarbamoylamino)-5-[2-(1-hydroxyethyl)pyrimidin-5-yl]-1,3-benzothiazol-7-yl]pyrimidin-4-yl]-4-methyl-piperidine-4-carboxylic acid], the values for the MIC in the experiment on S. aureus (ATCC 29213) and in the experiment with S. pyogenes (ATCC 51339) were 2 µg/mL (≈ 3.55 µM) and at most 1 µg/mL, respectively.

On to `CCNC(=O)Nc1nc2cc(-c3cnc(C(C)(C)O)nc3)cc(-c3cc(N4CCC(C(=O)O)CC4)ccn3)c2s1` [Compound 110, 1-[2-[2-(ethylcarbamoylamino)-5-[2-(1-hydroxy-1-methyl-ethyl)pyrimidin-5-yl]-1,3-benzothiazol-7-yl]-4-pyridyl]piperidine-4-carboxylic acid], for which the MIC in the experiment with S. aureus (ATCC 29213) is 2 µg/mL (≈ 3.56 µM); in the experiment with S. pyogenes (ATCC 51339), at most 1 µg/mL.

Regarding `CCNC(=O)Nc1nc2cc(-c3cnc(C(C)O)nc3)cc(-c3cc(CN4CCC5(CC4)COC5)ccn3)c2s1` (stereo not shown) [Compound 112, 1-ethyl-3-[5-[2-(1-hydroxyethyl)pyrimidin-5-yl]-7-[4-(2-oxa-7-azaspiro[3.5]nonan-7-ylmethyl)-2-pyridyl]-1,3-benzothiazol-2-yl]urea], the MIC in the experiment on S. aureus (ATCC 29213) and in the experiment with S. pyogenes (ATCC 51339) was at most 1 µg/mL throughout.

Turning to `CCNC(=O)Nc1nc2cc(-c3cnc(C(C)O)nc3)cc(-c3nccc(N4CCC(C)(C(=O)O)CC4)n3)c2s1` (stereo not shown) [Compound 117, 1-[2-[2-(ethylcarbamoylamino)-5-[2-(1-hydroxyethyl)pyrimidin-5-yl]-1,3-benzothiazol-7-yl]pyrimidin-4-yl]-4-methyl-piperidine-4-carboxylic acid], the figures for the MIC in the experiment with S. aureus (ATCC 29213) and with S. pyogenes (ATCC 51339) were 16 µg/mL (≈ 28.4 µM) and at most 1 µg/mL, respectively.

For the compound `CCNC(=O)Nc1nc2cc(-c3cnc(C(C)(C)O)nc3)cc(-c3ncc(CN4CCOCC4)cn3)c2s1` [Compound 120, 1-ethyl-3-[5-[2-(1-hydroxy-1-methyl-ethyl)pyrimidin-5-yl]-7-[5-(morpholinomethyl)pyrimidin-2-yl]-1,3-benzothiazol-2-yl]urea], the MIC in the experiment on S. aureus (ATCC 29213) and in the experiment on S. pyogenes (ATCC 51339) was at most 1 µg/mL each time.

Consider `CCNC(=O)Nc1nc2cc(-c3cnc(C4(O)CCN(C)CC4)nc3)cc(-c3ccccn3)c2s1` [Compound 128, 1-ethyl-3-[5-[2-(4-hydroxy-1-methyl-4-piperidyl)pyrimidin-5-yl]-7-(2-pyridyl)-1,3-benzothiazol-2-yl]urea], for which the MIC with S. aureus (ATCC 29213) and with S. pyogenes (ATCC 51339) was at most 1 µg/mL throughout.

Take `CCNC(=O)Nc1nc2cc(-c3cnc(C(C)(C)O)nc3)c(NCCOC)cc2s1` [Compound 150, 1-ethyl-3-[5-[2-(1-hydroxy-1-methyl-ethyl)pyrimidin-5-yl]-6-(2-methoxyethylamino)-1,3-benzothiazol-2-yl]urea]: the MIC stood at 2 µg/mL (≈ 4.65 µM) in the experiment with S. aureus (ATCC 29213) and 8 µg/mL (≈ 18.6 µM) in the experiment on S. pyogenes (ATCC 51339).

On to `CCNC(=O)Nc1nc2cc(-c3cnc(C(C)(C)O)nc3)cc(N3CCOCC3)c2s1` [Compound 151, 1-ethyl-3-[5-[2-(1-hydroxy-1-methyl-ethyl)pyrimidin-5-yl]-7-morpholino-1,3-benzothiazol-2-yl]urea], for which the MIC in the experiment with S. aureus (ATCC 29213) and in the experiment on S. pyogenes (ATCC 51339) was 2 µg/mL (≈ 4.52 µM) in each case.

On to `CCNC(=O)Nc1nc2cc(-c3cnc(C(C)(C)O)nc3)cc(-c3cc(CN4CCC(F)(F)CC4)ccn3)c2s1` [Compound 156, 1-[7-[4-[(4,4-difluoro-1-piperidyl)methyl]-2-pyridyl]-5-[2-(1-hydroxy-1-methyl-ethyl)pyrimidin-5-yl]-1,3-benzothiazol-2-yl]-3-ethyl-urea], for which the MIC in the experiment with S. aureus (ATCC 29213) and in the experiment on S. pyogenes (ATCC 51339) was at most 1 µg/mL in each case.

For `CCNC(=O)Nc1nc2cc(-c3cnc(C(C)(C)O)nc3)cc(-c3cc(CN4CCN(C)CC4)ccn3)c2s1` [Compound 159, 1-ethyl-3-[5-[2-(1-hydroxy-1-methyl-ethyl)pyrimidin-5-yl]-7-[4-[(4-methylpiperazin-1-yl)methyl]-2-pyridyl]-1,3-benzothiazol-2-yl]urea], the results for the MIC in the experiment on S. aureus (ATCC 29213) and in the experiment with S. pyogenes (ATCC 51339) were 2 µg/mL (≈ 3.66 µM) and at most 1 µg/mL, respectively.

`CCNC(=O)Nc1nc2cc(-c3cnc(C4(O)CN(C(=O)OC(C)(C)C)C4)nc3)cc(-c3ccccn3)c2s1` [Compound 162, tert-butyl 3-[5-[2-(ethylcarbamoylamino)-7-(2-pyridyl)-1,3-benzothiazol-5-yl]pyrimidin-2-yl]-3-hydroxy-azetidine-1-carboxylate]: the MIC in the experiment with S. aureus (ATCC 29213) and in the experiment with S. pyogenes (ATCC 51339) was at most 1 µg/mL in each case.

For `CCNC(=O)Nc1nc2cc(-c3cnc(C(C)(C)O)nc3)cc(-c3cc(CN4C[C@@H](C)O[C@@H](C)C4)ccn3)c2s1` [Compound 164, 1-[7-[4-[[(2R,6S)-2,6-dimethylmorpholin-4-yl]methyl]-2-pyridyl]-5-[2-(1-hydroxy-1-methyl-ethyl)pyrimidin-5-yl]-1,3-benzothiazol-2-yl]-3-ethyl-urea], the MIC in the experiment on S. aureus (ATCC 29213) and with S. pyogenes (ATCC 51339) was at most 1 µg/mL in each case.

With `CCNC(=O)Nc1nc2cc(-c3cnc(C4(O)CCNCC4)nc3)cc(-c3ccccn3)c2s1` [Compound 174, 1-ethyl-3-[5-[2-(4-hydroxy-4-piperidyl)pyrimidin-5-yl]-7-(2-pyridyl)-1,3-benzothiazol-2-yl]urea], the MIC stood at 8 µg/mL (≈ 16.8 µM) in the experiment with S. aureus (ATCC 29213) and 2 µg/mL (≈ 4.21 µM) in the experiment with S. pyogenes (ATCC 51339).

As for `CCNC(=O)Nc1nc2cc(-c3cnc(C(C)(C)O)nc3)c(OC)cc2s1` [Compound 176, 1-ethyl-3-[5-[2-(1-hydroxy-1-methyl-ethyl)pyrimidin-5-yl]-6-methoxy-1,3-benzothiazol-2-yl]urea], the MIC in the experiment with S. aureus (ATCC 29213) and in the experiment on S. pyogenes (ATCC 51339) was at most 1 µg/mL each time.

As to `CCNC(=O)Nc1nc2cc(-c3cnc(C(C)(C)O)nc3)c(F)cc2s1` [Compound 177, 1-ethyl-3-[6-fluoro-5-[2-(1-hydroxy-1-methyl-ethyl)pyrimidin-5-yl]-1,3-benzothiazol-2-yl]urea], the MIC was at most 1 µg/mL in the experiment with S. aureus (ATCC 29213) and 2 µg/mL (≈ 5.33 µM) with S. pyogenes (ATCC 51339).

As for `CCNC(=O)Nc1nc2cc(-c3cnc(C(C)(C)O)nc3)c(OCC3CC3)cc2s1` [Compound 182, 1-[6-(cyclopropylmethoxy)-5-[2-(1-hydroxy-1-methyl-ethyl)pyrimidin-5-yl]-1,3-benzothiazol-2-yl]-3-ethyl-urea], the MIC in the experiment with S. aureus (ATCC 29213) and in the experiment on S. pyogenes (ATCC 51339) was at most 1 µg/mL in each case.

`CCNC(=O)Nc1nc2cc(-c3cnc(C(C)(C)O)nc3)c(OCCOC)cc2s1` [Compound 183, 1-ethyl-3-[5-[2-(1-hydroxy-1-methyl-ethyl)pyrimidin-5-yl]-6-(2-methoxyethoxy)-1,3-benzothiazol-2-yl]urea]: the MIC in the experiment with S. aureus (ATCC 29213) and in the experiment on S. pyogenes (ATCC 51339) was at most 1 µg/mL in each case.

With `CCNC(=O)Nc1nc2cc(-c3cnc(C(C)(C)O)nc3)c(OCCO)cc2s1` [Compound 186, 1-ethyl-3-[6-(2-hydroxyethoxy)-5-[2-(1-hydroxy-1-methyl-ethyl)pyrimidin-5-yl]-1,3-benzothiazol-2-yl]urea], the MIC in the experiment with S. aureus (ATCC 29213) is 4 µg/mL (≈ 9.58 µM); with S. pyogenes (ATCC 51339), 2 µg/mL (≈ 4.79 µM).

Values taken from patent publication US20170260178A1 (SPERO GYRASE, INC., priority 2012, published 2017).
